From ChEMBL document CHEMBL1165947, “Synthesis and antitumor activity of 2,5-bis(3'-indolyl)-furans and 3,5-bis(3'-indolyl)-isoxazoles, nortopsentin analogues” (Bioorg Med Chem, 2010)

System: P388
Assay: Cytotoxicity against mouse P388 cells
Format: functional, cell-based

Row | SMILES | IC50 [nM]
1 | Cn1c(-c2cn(C)c3ccccc23)cnc1-c1cn(C)c2cc(Br)ccc12 [N-METHYL NORTOPSENTIN B] | 800
2 | Brc1ccc2c(-c3c[nH]c(-c4c[nH]c5ccccc45)n3)c[nH]c2c1 [NORTOPSENTIN C] | 4500
